Consider one cell line from the supplement of paper PMC10307832.

What all share (assay): relative viability (nuclei count vs DMSO), 5 days (fraction); higher = more cells survive
Compound in experiment [1]: CC1=CC(=CC=C1)NC2=NC(=CS2)C3=CC=NC=C3 + CS(=O)(=O)CCNCc1ccc(-c2ccc3ncnc(Nc4ccc(OCc5cccc(F)c5)c(Cl)c4)c3c2)o1 [Lapatinib] (partner 2 µM)
The method, boiled down: (§1)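 After 5 days of treatment, lung cancer cells in 1536-well plates were fixed and stained in a single step (final 0.05% Triton X-100, 1% formaldehyde, 1 ug/ml Hoechst) and their nuclei counted on 4× images. Treatment had been applied by pin tool the day after seeding as one drug alone or as a fixed anchor-drug dose with five library-drug doses (not always all listed) in √10 steps. Relative viability is the nuclei count of treated wells divided by that of vehicle wells, and values are medians of duplicate plates.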

Compound in experiment [2]: CC1=CC(=CC=C1)NC2=NC(=CS2)C3=CC=NC=C3 + C[C@]1(O)C[C@@H](c2nc(-c3ccc4ccc(-c5ccccc5)nc4c3)c3c(N)nccn32)C1 [Linsitinib] (partner 1 µM)
The method in brief:
as §1

Compound in the experiment “Masitinib + Tozasertib”: Cc1ccc(NC(=O)c2ccc(CN3CCN(C)CC3)cc2)cc1Nc1nc(-c2cccnc2)cs1 [Masitinib] + Cc1cc(Nc2cc(N3CCN(C)CC3)nc(Sc3ccc(NC(=O)C4CC4)cc3)n2)n[nH]1 [Tozasertib] (partner 0.1 µM)
The method, boiled down:
as §1

Compound in the experiment “Masitinib + Decitabine”: Cc1ccc(NC(=O)c2ccc(CN3CCN(C)CC3)cc2)cc1Nc1nc(-c2cccnc2)cs1 [Masitinib] + Nc1ncn([C@H]2C[C@H](O)[C@@H](CO)O2)c(=O)n1 [Decitabine] (partner 2 µM)
The method, boiled down:
as §1

As for UMC-11, the relative viability in experiment [1] (first compound 0.08 µM) is 0.839; in experiment [1] (first compound 0.253 µM), 0.85; in experiment [1] (first compound 0.8 µM), 0.885; in experiment [1] (first compound 2.53 µM) it was 0.934; in experiment [1] (first compound 8 µM) it was 1.02; in experiment [2] (first compound 0.08 µM), 0.983. The relative viability in experiment [2] (first compound 0.253 µM) worked out at 1; in experiment [2] (first compound 0.8 µM) it was 1.01; in experiment [2] (first compound 2.53 µM) it was 0.977; in experiment [2] (first compound 8 µM) it was 1.05; in the experiment with Masitinib + Tozasertib (first compound 0.01 µM), 0.204; with Masitinib + Tozasertib (first compound 0.03162 µM) it was 0.207. Also, the relative viability amounted to 0.198 in the experiment with Masitinib + Tozasertib (first compound 0.1 µM); 0.211 in the experiment with Masitinib + Tozasertib (first compound 0.3162 µM); 0.195 with Masitinib + Tozasertib (first compound 1 µM); 0.565 in the experiment with Masitinib + Decitabine (first compound 0.01 µM); 0.641 with Masitinib + Decitabine (first compound 0.03162 µM); 0.692 with Masitinib + Decitabine (first compound 0.1 µM). Also, the figures for the relative viability with Masitinib + Decitabine (first compound 0.3162 µM) and with Masitinib + Decitabine (first compound 1 µM) were 0.608 and 0.596, respectively.
